Data from patent US11478551B2, “Long-acting adrenomedullin derivative” (University of Miyazaki, priority 2015, dated 2022).

Assays:
[1] = tested on: spontaneously hypertensive rat (SHR); experiment: Effect of suppressing increase in blood pressure in spontaneously hypertensive rat (SHR) fed high-salt diet; format: in vivo; details: 336 μg/100 μL subcutaneous single dose, SHR on high-salt diet (8% NaCl), 9 days after administration
Procedure: Each 8-week-old male SHR (approximately 200 g) was fed with a high-salt diet (8% NaCl). The compound (8) was administered in a form dissolved in physiological saline at the time of feeding with the high-salt diet. 100 μL of physiological saline was subcutaneously administered in a single dose to each male SHR (approximately 200 g) in the same condition as above in a control group.

[2] = tested on: vascular occlusion model rats; experiment: Vascular occlusion model, Morris water maze test; format: in vivo; details: 1 and 10 nmol/kg subcutaneous, rat
Procedure: Physiological saline was administered as a vehicle to a control group. Then, the bilateral vertebral arteries were permanently occluded under anesthesia. On the next day, the bilateral common carotid arteries were occluded for 30 minutes under anesthesia using a suture thread. Then, the suture thread was removed, and blood flow was restarted. The date of the bilateral common carotid artery occlusion was defined as the date of the vascular occlusion model preparation, i.e., day 0. 9 days after the model preparation, the rat was caused to swim in the Morris water maze in one trial (training). The hidden platform test was conducted at intervals of 4 trials/day for 5 days from 10 days after the model preparation. On the fifth day of the hidden platform test (14 days after the model preparation), the probe test was conducted 1 hour after the final trial.
The Morris water maze test was conducted using an experimental apparatus described below. A round pool having a diameter of 150 cm, a height of 45 cm, and a water depth of 30 cm was provided. A clear colorless platform having a diameter of 12 cm was positioned approximately 1 cm below the water surface in the round pool. The water temperature of the round pool was set to 23±1° C. Indirect lighting was disposed within the room having the experimental apparatus placed therein, and visual cues (calendar, ball, cube and striped sheet) for the animals were arranged therein. In the test period, this arrangement was always constant. A video tracking system (Smart, Panlab, S.L.U.) was used in measurement.
The hidden platform test was conducted by procedures described below. […] The swimming time to arrive at the platform from the start (escape latency) was measured. […]
The probe test was conducted by procedures described below. […], the swimming time in a zone having the platform placed therein was measured. The stay rate (%) was calculated according to an expression given below using the measured swimming time. […]

“GL-2-branched CH3O-PEG (60k)-CH2-^αNH-(h.AM (1-52)) [Compound (8)]” was tested, and the “increase in the blood pressure compared to the control group” value [1] was “suppressed”, the “death rate associated with the operation for the bilateral common carotid artery occlusion” value [2] was “no significant difference” and the “escape latency in the hidden platform test as compared to the vehicle control group” value [2] was “shortened”. For the same substance, the “stay rate in the probe test as compared to the vehicle control group” value [2] was “significantly increased”.
